Measured values taken from publication PMC8795197, “Safety and activity of WX-0593 (Iruplinalkib) in patients with ALK- or ROS1-rearranged advanced non-small cell lung cancer: a phase 1 dose-escalation and dose-expansion trial” (Signal Transduction and Targeted Therapy, 2022).

Columns and labels:
[1] = system: advanced NSCLC patients with ALK or ROS1 rearrangement; assay: Phase 1 dose-escalation phase: antitumor activity (RECIST 1.1, investigators); type: in vivo, human
Procedure: The starting dose for WX-0593 was 30 mg, which was selected on the basis of preclinical toxicology studies (data unpublished), according to the International Conference on Harmonisation Guidance for Industry S9 Nonclinical Evaluation for Anticancer Pharmaceuticals.[30] Three patients were assigned to each dose level. In the dosing cohort of 30 mg, treatment included a single WX-0593 dose, followed by 7-day PK evaluation period, and subsequent daily oral dosing for continuous 21 days. In other dosing cohorts, WX-0593 was administered orally as a single dose in the 4-day PK run-in period, followed by dosing once per day in continuous 21-day cycles. The DLT observation period was the first cycle of WX-0593 treatment (the single-dose period and 21 days of multiple-dose period). Patients performed imaging evaluation at baseline, with computed tomography or magnetic resonance imaging of the chest, abdomen, pelvis, and brain. In the dose-escalation phase, the first efficacy evaluation was done after 3-week continuous administration of WX-0593 and every 6 weeks thereafter. […] If responses (CR or PR) were observed, repeat assessments were required to confirm the responses 4 weeks after the initial evaluation. […] AEs were assessed in all patients throughout this study and graded per the National Cancer Institute Common Terminology Criteria for Adverse Events version 4.03. In the dose-escalation phase, the primary endpoints were MTD, DLT, and safety assessed by investigators and the subsequent recommended dose of WX-0593. Safety parameters included TEAEs, SAEs, and TRAEs. The key secondary endpoints were PK parameters and preliminary antitumor activity of WX-0593. ORR was defined as the proportion of patients who had best overall response, including CR or PR. PFS was calculated from the date of the first dose of WX-0593 to the date of documented disease progression or death (whichever occurred first). DCR was defined as the proportion of patients who had best overall response, including CR, PR, or SD, with a duration of at least 12 weeks. TTP was calculated from the date when the first dose of WX-0593 was given to first documented disease progression. […] OS was calculated from the date when the first dose of WX-0593 was administered to the date of death from any cause. Safety analysis was performed in the SS, which was comprised of all patients treated with one dose of WX-0593 and with safety data recorded. Efficacy analysis was performed in the FAS, which was defined as all patients treated with at least one dose of WX-0593. The PK analysis set included all patients treated with at least one dose of WX-0593 and with at least one evaluable PK sample. […] Descriptive statistics were carried out to summarize patients’ baseline characteristics and safety. […] All time-to-event data (PFS, TTP, DOR, and OS) and their corresponding 95% CIs were estimated by Kaplan–Meier methods. PK parameter analyses were done with Phoenix WinNonlin version 8.0. All other statistical analyses were conducted using SAS version 9.4.

M2 = M2 (Homo sapiens, UniProt P08172); assay: GPCR antagonist screening assay; type: cell-based
Chain of M2 (P08172 whole entry): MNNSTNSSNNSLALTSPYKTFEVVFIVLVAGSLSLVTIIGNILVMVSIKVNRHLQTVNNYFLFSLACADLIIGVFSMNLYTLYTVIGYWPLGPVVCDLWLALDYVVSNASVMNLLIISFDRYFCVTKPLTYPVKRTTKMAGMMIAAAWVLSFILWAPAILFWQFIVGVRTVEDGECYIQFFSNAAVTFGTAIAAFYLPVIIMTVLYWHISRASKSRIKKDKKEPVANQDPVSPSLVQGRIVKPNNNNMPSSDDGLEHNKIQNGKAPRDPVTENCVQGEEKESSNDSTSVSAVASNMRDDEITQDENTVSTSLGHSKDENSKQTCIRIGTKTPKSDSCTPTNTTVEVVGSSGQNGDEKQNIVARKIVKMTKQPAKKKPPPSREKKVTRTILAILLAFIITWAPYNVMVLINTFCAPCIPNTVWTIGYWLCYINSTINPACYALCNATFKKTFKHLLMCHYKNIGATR

[2] = General pharmacology: CNS and respiratory system; type: in vivo, rats
Procedure: […]. Therefore, WX-0593 has a low risk of cardiotoxicity. There were no effects on the CNS and respiratory system in rats at doses of 3, 10, and 30 mg/kg. However, WX-0593 10 and 30 mg/kg may result in benign respiratory rate and decreases in minute ventilation in female rats. There were no effects on the cardiovascular system, blood pressure, ECG parameters or waveforms in monkeys at doses of 5, 10, and 25 mg/kg; 10 and 25 mg/kg may result in mild decreases in heart rate (within the normal range) and PR prolongation and QTc shortening associated with bradycardia within the normal range (no statistical difference when compared to the control arm). No cardiovascular system adverse reactions related to the test product were found. The human equivalent dose (using 60 kg) is 3636 mg/person in CNS, 3636 mg/person in male respiratory system and 363.6 mg/person in female respiratory system, and 607 mg/person in cardiovascular system.

COc1cc(N2CCC3(CCN(C)CC3)CC2)ccc1Nc1ncc(Cl)c(Nc2ccccc2P(C)(C)=O)n1 [WX-0593]
ORR (n/N, 95%CI) ([1]; ALK TKI naive, dose: 30, 60, 90, 120, 180, 240, 300 mg, 30 mg): 66.7% (2/3, 9.4-99.2%)
ORR (n/N, 95%CI) ([1]; ALK TKI naive, dose: 30, 60, 90, 120, 180, 240, 300 mg, 90 mg): 50.0% (1/2, 1.3-98.7%)
ORR (n/N, 95%CI) ([1]; ALK TKI naive, dose: 30, 60, 90, 120, 180, 240, 300 mg, 120 mg): 75.0% (6/8, 34.9-96.8%)
ORR (n/N, 95%CI) ([1]; ALK TKI naive, dose: 30, 60, 90, 120, 180, 240, 300 mg, 180 mg): 83.3% (5/6, 35.9-99.6%)
ORR (n/N, 95%CI) ([1]; ALK TKI naive, dose: 30, 60, 90, 120, 180, 240, 300 mg, 240 mg): 60.0% (3/5, 14.7-94.7%)
ORR (n/N, 95%CI) ([1]; ALK TKI naive, dose: 30, 60, 90, 120, 180, 240, 300 mg, 300 mg): 100.0% (1/1, 2.5-100.0%)
DCR ([1]; ALK-rearranged patients): 89.1%
ORR (n/N, 95%CI) ([1]; ALK-rearranged patients, total): 63.0%
ORR (n/N, 95%CI) ([1]; ALK-rearranged, ALK TKI naive, dose: 30, 60, 90, 120, 180, 240, 300 mg, 30 mg): 100% (2/2, 15.8-100%)
ORR (n/N, 95%CI) ([1]; ALK-rearranged, ALK TKI naive, dose: 30, 60, 90, 120, 180, 240, 300 mg, 60 mg): 66.7% (2/3, 9.4-99.2%)
ORR (n/N, 95%CI) ([1]; ALK-rearranged, ALK TKI naive, dose: 30, 60, 90, 120, 180, 240, 300 mg, 120 mg): 85.7% (6/7, 42.1-99.6%)
ORR (n/N, 95%CI) ([1]; ALK-rearranged, ALK TKI naive, dose: 30, 60, 90, 120, 180, 240, 300 mg, 180 mg): 75.0% (3/4, 19.4-99.4%)
ORR (n/N, 95%CI) ([1]; ALK-rearranged, ALK TKI naive, dose: 30, 60, 90, 120, 180, 240, 300 mg, 300 mg): 100% (1/1, 2.5-100%)
ORR (n/N, 95%CI) ([1]; ALK-rearranged, crizotinib and other ALK TKIs, dose: 30, 60, 90, 120, 180, 240, 300 mg, 120 mg): 100% (1/1, 2.5-100%)
ORR (n/N, 95%CI) ([1]; ALK-rearranged, crizotinib and other ALK TKIs, total): 100% (3/3, 29.2- 100%)
ORR (n/N, 95%CI) ([1]; ALK-rearranged, crizotinib only, total): 40.0% (8/20, 19.1-63.9%)
DCR ([1]; ROS1-rearranged patients): 80.0%
ORR (n/N, 95%CI) ([1]; ROS1-rearranged, crizotinib and other ALK TKIs, dose: 30, 60, 90, 120, 180, 240, 300 mg, 90 mg): 0% (0/1, 0-97.5%)
ORR (n/N, 95%CI) ([1]; ROS1-rearranged, crizotinib and other ALK TKIs, total): 0% (0/2, 0-84.2%)
ORR (n/N, 95%CI) ([1]; ROS1-rearranged, crizotinib only, dose: 30, 60, 90, 120, 180, 240, 300 mg, 90 mg): 0% (0/1, 0-97.5%)
ORR (n/N, 95%CI) ([1]; ROS1-rearranged, crizotinib only, total): 0% (0/3, 0-70.8%)
median PFS ([1]; ROS1 rearrangement, crizotinib-naive (n = 7)): 3.65 months
ORR (n/N, 95%CI) ([1]; baseline CNS metastasis, total): 9.1% (2/22, 1.1-29.2%)
ORR (n/N, 95%CI) ([1]; baseline measurable CNS metastasis, total): 33.3% (2/6,4.3-77.7%)
ORR (n/N, 95%CI) ([1]; prior crizotinib and other ALK TKI, dose: 30, 60, 90, 120, 180, 240, 300 mg, 120 mg): 100% (1/1, 2.5-100%)
ORR (n/N, 95%CI) ([1]; prior crizotinib and other ALK TKI, total): 100% (3/3, 29.2-100%)
DOR, median (95% CI) ([1]; total (n=54)): 10.87 (10.87, NR) mo
PFS, median (95% CI) ([1]; total (n=54)): 11.89 (5.03, 11.89) mo
TTP, median (95% CI) ([1]; total (n=54)): 11.89 (6.44, 11.89) mo
IC50 (M2): > 10 µM
effects on the CNS and respiratory system ([2]; 3, 10 and 30 mg/kg): no effects
human equivalent dose, CNS ([2]; using 60 kg): 3636 mg/person
human equivalent dose, female respiratory system ([2]; using 60 kg): 363.6 mg/person
human equivalent dose, male respiratory system ([2]; using 60 kg): 3636 mg/person
